Measured values reported in patent publication EP0148431A1, “Benzimidazoles, their preparation, and medicaments containing these compounds” (Dr. Karl Thomae GmbH, priority 1983, dated 1985).
Where two headings read alike, the source gives them in different places.

System: narkotisierten Katze
Details: anaesthetised cats (pentobarbital sodium 40 mg/kg i.p.), mean of at least 3 cats
Method: Beispielsweise wurden die Verbindungen • A = 2-(2-Methoxy-4-methylsulfonyl-phenyl)-5-cyano-benzimidazol und • B = 2-(2-Methoxy-4-propargyloxy-phenyl)-5-cyano-benzimidazol auf ihre biologischen Eigenschaften wie folgt untersucht: • Bestimmung der Blutdruckwirkung und der positiv inotropen Wirkung an der narkotisierten Katze
Die Untersuchungen wurden an Katzen durchgeführt, die mit Pentobarbital-Natrium (40 mg/kg i.p.) narkotisiert waren. Die Tiere atmeten spontan. Der arterielle Blutdruck wurde in der Aorta abdominalis mit einem Statham-Druckwandler (P 23 Dc) gemessen. Für die Erfassung der positiv inotropen Wirkung wurde mit einem Kathetertipmanometer (Millar PC-350 A) der Druck in der linken Herzkammer gemessen. Daraus wurde der Kontraktilitätsparameter d^p/dtmax mittels eines Analogdifferenzierers gewonnen. Die zu untersuchenden Substanzen wurden in eine Vena femoralis injiziert. Als Lösungsmittel diente Polydiol 200. Jede Substanz wurde an mindestens 3 Katzen geprüft.

| SMILES | Zunahme von dp/dtmax in % (0,2 mg/kg i.v.) [%] | Zunahme von dp/dtmax in % (0,6 mg/kg i.v.) [%] | Zunahme von dp/dtmax in % (2,0 mg/kg i.v.) [%] |
| --- | --- | --- | --- |
| COc1cc(S(C)(=O)=O)ccc1-c1nc2ccc(C#N)cc2[nH]1 [A, 2-(2-Methoxy-4-methylsulfonyl-phenyl)-5-cyano-benzimidazol] | 51 | 96 | 79 |
| C#CCOc1ccc(-c2nc3ccc(C#N)cc3[nH]2)c(OC)c1 [B, 2-(2-Methoxy-4-propargyloxy-phenyl)-5-cyano-benzimidazol] | 33 | 48 | 85 |
